Structures can show the parent of a compound that is named as a salt.
Legend:
GFP-c-Abl = assay: Nuclear targeting of GFP-c-Abl in transiently transfected 293 cells; type: cell-based, human
From the text: (§1) Cell culture. Human HeLa cervical cancer cells, HCT116/vector (HCT116 colorectal carcinoma cells stably transfected with an empty vector), HCT116/MUC1 (HCT116 colorectal carcinoma cells stably transfected with an expression vector encoding a MUC1 polypeptide), HCT116/MUC1(Y46F) (HCT116 colorectal carcinoma cells stably transfected with an expression vector encoding a mutant MUC1 polypeptide containing an amino acid substitution at position 46 changing a tyrosine (Y) to phenylalanine (F)) colon cancer cells (Ren et al., (2002) J. Biol. Chem. 277: 17616-17622) and 293 cells were cultured in Dulbecco's modified medium with 10% heat-inactivated fetal bovine serum, 100 units/ml penicillin, 100 μg/ml streptomycin and 2 mM L-glutamine. Human ZR-75-1/vector (ZR-75-1 breast cancer cells stably transfected with an empty vector) and ZR-75-1/MUC1siRNA (ZR-75-1 breast cancer cells stably transfected with an expression vector encoding an siRNA specific for MUC1) breast cancer cells (Ren et al., (2004) Cancer Cell 5:163-175) were grown in RPMI1640 medium containing 10% heat-inactivated fetal bovine serum and antibiotics. Cells were treated with 1 μM adriamycin (ADR; Calbiochem), 100 μM cisplatin (CDDP; Sigma) or 10 μM STI571 (Gleevec; Novartis, Basel, Switzerland).
Cell transfections. […]

c-Abl = assay: Nuclear and cytosolic c-Abl in HeLa/vector and HeLa/MUC1 cells after genotoxic agents (subcellular fractionation, immunoblot); type: cell-based, human; conditions: 1 μM ADR, 2 hours
From the text: as §1
Subcellular fractionation. Nuclear fractions were prepared as described (Kharbanda et al., (1996) Cancer Res. 56:3617-3621). Cytosolic fractions were prepared as described (Hill et al., (2004) EMBO J. 23:2134-2145). Cell membrane fractions were prepared with the Plasma Membrane Extraction Kit (BioVision Research Products, Mountain View, Calif.). Mitochondria were purified as described (Ren et al., (2004) Cancer Cell 5:163-175; Ren et al., (2006) Oncogene 25:20-31).
Immunoprecipitations and immunoblot analysis. Cell lysates were prepared as described (Kharbanda et al., (1995) Nature 376:785-788); Yoshida et al., (2005) Nat. Cell Biol. 7:278-285). Soluble proteins were incubated with anti-MUC1-N (Kufe et al., (1984) Hybridoma 3:223-232), anti-MUC1-C (Ab5; Neomarker, Montreal, Quebec), anti-Flag (Sigma, St. Louis, Mo.), anti-c-Abl (Ab3; Oncogene, San Diego, Calif.) or anti-14-3-3 (Abcam Inc., Cambridge, Mass.) antibodies for 2 hours at 4° C., followed by precipitation with protein G-Sepharose beads for 1 hour. […] Intensity of the signals was determined by densitometric scanning. Statistical significance was determined by the Student's t-test.

HCT116 cells = assay: Assessment of apoptosis (sub-G1 DNA, propidium iodide, FACScan); type: cell-based, human; conditions: 10 μM STI571 with CDDP, 12 h
[1] = tested on: MUC1-CD (purified MUC1 cytoplasmic domain, thrombin-cleaved from GST-MUC1-CD)
[2] = tested on: MUC1(Y60F), MUC1 with tyrosine 60 of the cytoplasmic domain changed to phenylalanine
[3] = tested on: MUC1 (mucin 1), wild-type, expressed in cells as heterodimer of MUC1-N and MUC1-C

In the case of `COc1cccc2c1C(=O)c1c(O)c3c(c(O)c1C2=O)C[C@@](O)(C(=O)CO)C[C@@H]3O[C@H]1C[C@H](N)[C@H](O)[C@H](C)O1` [ADR, adriamycin], the “ADR-induced nuclear targeting of c-Abl” value (GFP-c-Abl; GFP-c-Abl with coexpressed MUC1, 2 hours) is reported as “attenuated by coexpression of MUC1”, the “nuclear targeting of GFP-tagged c-Abl” value (GFP-c-Abl; GFP-c-Abl without MUC1, ADR, 2 hours) is reported as “increased by ADR treatment” and the “nuclear targeting of c-Abl” value (c-Abl; HeLa/MUC1 cells) is reported as “little to no nuclear targeting of c-Abl”. For the same molecule, the “nuclear targeting of c-Abl” value (c-Abl; HeLa/vector cells) was “targeting of c-Abl to the nucleus”.

With `Cc1ccc(NC(=O)c2ccc(CN3CCN(C)CC3)cc2)cc1Nc1nccc(-c2cccnc2)n1` [STI751, imatinib mesylate] the “effect on CDDP-induced apoptosis (sub-G1 DNA)” value (“effect” for short) (HCT116 cells; HCT116/MUC1(Y60F) cells) was “significantly attenuated”, the “effect” value (HCT116 cells; HCT116/MUC1 cells) was “no significant effect” and the “effect” value (HCT116 cells; HCT116/vector cells) was “significantly attenuated”.

“GST-c-Abl (glutathione-S-transferase fused in frame with a wild-type c-Abl polypeptide)” was tested, and the “phosphorylation of MUC1-CD(Y60F) (in vitro kinase assay, 32P-ATP, SDS-PAGE and autoradiography)” value (MUC1-CD(Y60F)) was “c-Abl phosphorylation was substantially decreased with the MUC1-CD(Y60F) mutant” and the “phosphorylation of MUC1-CD (in vitro kinase assay, 32P-ATP, SDS-PAGE and autoradiography)” value [1] was “Analysis of the reaction products by SDS-PAGE and autoradiography showed phosphorylation of MUC1-CD”.

In the case of “GST-c-Abl(K-R) (GST fused to a kinase defective mutant c-Abl, lysine to arginine in the active site)”, the “phosphorylation of MUC1-CD (in vitro kinase assay, 32P-ATP, SDS-PAGE and autoradiography)” value [1] is reported as “There was no detectable phosphorylation when MUC1-CD was incubated with a purified kinase-inactive c-Abl(K-R)”.

“c-Abl (nonreceptor c-Abl tyrosine kinase), endogenous in human cell lines” was tested, and the “c-Abl Thr-735 phosphorylation (anti-c-Abl precipitates, immunoblot anti-phospho-c-Abl-Thr-735)” value [2] was “c-Abl Thr-735 phosphorylation was attenuated by expression of MUC1, but not MUC1(Y60F), in HCT116 cells” and the “c-Abl Thr-735 phosphorylation (anti-c-Abl precipitates, immunoblot anti-phospho-c-Abl-Thr-735)” value [3] was “c-Abl Thr-735 phosphorylation was attenuated by expression of MUC1”.
